Laboratory results reported in US20170348306A1, “METHODS OF TREATING CANCER” (GLAXOSMITHKLINE LLC, priority 2011, published 2017).

Key:
Assay in all cases: 6 day proliferation assay (assay 1)
Assay type in all cases: cell-based
Farage = details: Homo sapiens, 144 h, 6 days, EZH2 WT, read-out: Compound A gIC50
Protocol: (§1) Cells were cultured in appropriate medium in flasks to 80-100% confluency. Cells were harvested, counted and plated at a pre-determined optimal seeding density ranging from 50 cells per well to 4000 cells per well depending on the growth characteristics of individual cell lines in 384-well tissue culture plates (Greiner #781090). Plates were then incubated overnight at 37° C., 5% CO2. Cells were treated with compound using a 20 point 1:2 fold dilution scheme with a final concentration of 0.15% DMSO. One column per plate contained cells treated with 0.15% DMSO only, and one column contained no cells to serve as background. Plates were incubated at 37° C., 5% CO2 for 6 days. A time zero (t0) reading was taken on the day of compound addition. To develop the plates, 25 μL of Cell Titer Glo (Promega #G7572) was added to each well and incubated at room temperature for 12 minutes. Luminescence was measured on the Tecan Safire2.
(§2) Data were analyzed using Assay Client software. Dose response curves were generated based on percent of growth compared to t0. Growth IC50 values were calculated using a 4 parameter logistic model.
(§3) In addition, further optimization of the EZH2 inhibition assay

NAMALWA = details: Homo sapiens, 144 h, 6 days, EZH2 WT, read-out: Compound A gIC50
Protocol: as §1, §2, §3

U937 = details: Homo sapiens, U-937, 144 h, 6 days, EZH2 WT, read-out: Compound A gIC50
Protocol: as §1, §2, §3

Pfeiffer = details: Homo sapiens, 144 h, 6 days, EZH2 A677G, read-out: Compound A gIC50
Protocol: as §1, §2, §3

DB = details: Homo sapiens, 144 h, 6 days, EZH2 Y641N, read-out: Compound A gIC50
Protocol: as §1, §2, §3

Jiyoye = details: Homo sapiens, 144 h, 6 days, EZH2 WT, read-out: Compound A gIC50
Protocol: as §1, §2, §3

L428 = details: Homo sapiens, L-428, 144 h, 6 days, EZH2 Y641S, read-out: Compound A gIC50
Protocol: as §1, §2, §3

BC-1 = details: Homo sapiens, BC1, 144 h, 6 days, EZH2 WT, read-out: Compound A gIC50
Protocol: as §1, §2, §3

DOHH2 = details: Homo sapiens, DOHH-2, 144 h, 6 days, EZH2 WT, read-out: Compound A gIC50
Protocol: as §1, §2, §3

SKM1 = details: Homo sapiens, SKM-1, 144 h, 6 days, EZH2 Y641C, read-out: Compound A gIC50
Protocol: as §1, §2, §3

SU-DHL-5 = details: Homo sapiens, 144 h, 6 days, EZH2 WT, read-out: Compound A gIC50
Protocol: as §1, §2, §3

SU-DHL-4 = details: Homo sapiens, 144 h, 6 days, EZH2 Y641S, read-out: Compound A gIC50
Protocol: as §1, §2, §3

HT = details: Homo sapiens, 144 h, 6 days, EZH2 WT, read-out: Compound A gIC50
Protocol: as §1, §2, §3

SU-DHL-10 = details: Homo sapiens, SU-DHL10, 144 h, 6 days, EZH2 Y641F, read-out: Compound A gIC50
Protocol: as §1, §2, §3

Toledo = details: Homo sapiens, 144 h, 6 days, EZH2 WT, read-out: Compound A gIC50
Protocol: as §1, §2, §3

JM1 = details: Homo sapiens, 144 h, 6 days, EZH2 WT, read-out: Compound A gIC50
Protocol: as §1, §2, §3

1A2 = details: Homo sapiens, 144 h, 6 days, EZH2 WT, read-out: Compound A gIC50
Protocol: as §1, §2, §3

RCK8 = details: Homo sapiens, 144 h, 6 days, EZH2 WT, read-out: Compound A gIC50
Protocol: as §1, §2, §3

Ramos = details: Homo sapiens, 144 h, 6 days, EZH2 WT, read-out: Compound A gIC50
Protocol: as §1, §2, §3

P3HR1 = details: Homo sapiens, P3HR-1, 144 h, 6 days, EZH2 WT, read-out: Compound A gIC50
Protocol: as §1, §2, §3

BC-3 = details: Homo sapiens, 144 h, 6 days, EZH2 WT, read-out: Compound A gIC50
Protocol: as §1, §2, §3

CA46 = details: Homo sapiens, 144 h, 6 days, EZH2 WT, read-out: Compound A gIC50
Protocol: as §1, §2, §3

HsSullan = details: Homo sapiens, 144 h, 6 days, EZH2 WT, read-out: Compound A gIC50
Protocol: as §1, §2, §3

REC1 = details: Homo sapiens, 144 h, 6 days, EZH2 WT, read-out: Compound A gIC50
Protocol: as §1, §2, §3

MJ = details: Homo sapiens, 144 h, 6 days, EZH2 WT, read-out: Compound A gIC50
Protocol: as §1, §2, §3

BC-2 = details: Homo sapiens, 144 h, 6 days, EZH2 WT, read-out: Compound A gIC50
Protocol: as §1, §2, §3

Raji = details: Homo sapiens, 144 h, 6 days, EZH2 WT, read-out: Compound A gIC50
Protocol: as §1, §2, §3

RPMI-6666 = details: Homo sapiens, 144 h, 6 days, EZH2 WT, read-out: Compound A gIC50
Protocol: as §1, §2, §3

HDMyZ = details: Homo sapiens, 144 h, 6 days, EZH2 WT, read-out: Compound A gIC50
Protocol: as §1, §2, §3

WSU-DLCL-2 = details: Homo sapiens, WSUDLCL2, 144 h, 6 days, EZH2 Y641F, read-out: Compound A gIC50
Protocol: as §1, §2, §3

CROAP5 = details: Homo sapiens, CRO-AP5, 144 h, 6 days, EZH2 WT, read-out: Compound A gIC50
Protocol: as §1, §2, §3

Karpass422 = details: Homo sapiens, 144 h, 6 days, EZH2 Y641N, read-out: Compound A gIC50
Protocol: as §1, §2, §3

OCI-LY-19 = details: Homo sapiens, OCI-LY19, 144 h, 6 days, EZH2 Y641N, read-out: Compound A gIC50
Protocol: as §1, §2, §3

RL = details: Homo sapiens, 144 h, 6 days, EZH2 Y641N, read-out: Compound A gIC50
Protocol: as §1, §2, §3

Hs445 = details: Homo sapiens, Hs 445, 144 h, 6 days, EZH2 WT, read-out: Compound A gIC50
Protocol: as §1, §2, §3

Daudi = details: Homo sapiens, 144 h, 6 days, EZH2 WT, read-out: Compound A gIC50
Protocol: as §1, §2, §3

CROAP2 = details: Homo sapiens, CRO-AP2, 144 h, 6 days, EZH2 WT, read-out: Compound A gIC50
Protocol: as §1, §2, §3

DG75 = details: Homo sapiens, DG-75, 144 h, 6 days, EZH2 WT, read-out: Compound A gIC50
Protocol: as §1, §2, §3

IC50 (U937): 7.9 µM
IC50 (SKM1): 6.16 µM
IC50 (SU-DHL-5): 3.44 µM
IC50 (SU-DHL-4): 14 µM
IC50 (SU-DHL-10): 0.324 µM
IC50 (Ramos): 3.51 µM
IC50 (Raji): 6.14 µM
IC50 (Karpass422): 1.32 µM
IC50 (OCI-LY-19): 4.48 µM
IC50 (Daudi): 13.4 µM
SMILES: CCCc1cc(C)[nH]c(=O)c1CNC(=O)c1cc(-c2ccc(N3CCN(C)CC3)nc2)cc2c1cnn2C(C)C [Compound A, 1-(1-methylethyl)-N-[(6-methyl-2-oxo-4-propyl-1,2-dihydro-3-pyridinyl)methyl]-6-[6-(4-methyl-1-piperazinyl)-3-pyridinyl]-1H-indazole-4-carboxamide]
IC50 (Farage): 4.79 µM
IC50 (NAMALWA): 6.22 µM
IC50 (Pfeiffer): 0.189 µM
IC50 (DB): 9.5 µM
IC50 (Jiyoye): 2.47 µM
IC50 (L428): 3.1 µM
IC50 (BC-1): 8.82 µM
IC50 (DOHH2): 6.43 µM
IC50 (HT): 3.71 µM
IC50 (Toledo): 21.8 µM
IC50 (JM1): 6.66 µM
IC50 (1A2): 9.26 µM
IC50 (RCK8): 5.56 µM
IC50 (P3HR1): 7.8 µM
IC50 (BC-3): 5.28 µM
IC50 (CA46): 8.63 µM
IC50 (HsSullan): 3.94 µM
IC50 (REC1): 2.91 µM
IC50 (MJ): 3.28 µM
IC50 (BC-2): 2.18 µM
IC50 (RPMI-6666): 3.1 µM
IC50 (HDMyZ): 7.21 µM
IC50 (WSU-DLCL-2): 3.1 µM
IC50 (CROAP5): 6.16 µM
IC50 (RL): 4.66 µM
IC50 (Hs445): 1.57 µM
IC50 (CROAP2): 11.3 µM
IC50 (DG75): 6.23 µM
